Reference: US8426449B2, “Aminoalkylphenyl antagonists of prostaglandin D2 receptors” (Panmira Pharmaceuticals, LLC, priority 2008, dated 2013)

Molecular target: T1, human DP2 receptor (Homo sapiens, UniProt Q9Y5Y4)
T1 construct: expressed in transfected cells
T1 sequence (Q9Y5Y4 1-395): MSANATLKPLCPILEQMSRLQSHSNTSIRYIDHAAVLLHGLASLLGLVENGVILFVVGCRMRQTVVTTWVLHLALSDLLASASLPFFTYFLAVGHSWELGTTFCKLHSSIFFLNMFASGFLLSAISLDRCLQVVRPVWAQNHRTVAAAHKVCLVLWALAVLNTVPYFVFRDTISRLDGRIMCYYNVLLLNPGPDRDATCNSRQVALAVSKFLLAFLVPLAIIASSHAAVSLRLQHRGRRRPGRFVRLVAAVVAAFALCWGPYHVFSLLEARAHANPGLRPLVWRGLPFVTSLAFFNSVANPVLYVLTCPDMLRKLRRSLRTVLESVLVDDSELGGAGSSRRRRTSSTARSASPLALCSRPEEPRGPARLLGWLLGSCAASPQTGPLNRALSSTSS
Assay: DP2/CRTH2 radioligand binding assay using [3H]PGD2
Settings: hDP2 (CRTH2) binding assay, membranes of HEK293 cells expressing recombinant human DP2
Procedure: The ability of a compound to bind to the human DP2 receptor is assessed via a radioligand binding assay using [^3H]PGD2. HEK293 cells stably expressing recombinant human DP2 are resuspended in 10 mM Hepes, 7.4 containing 1 mM DTT, lysed and centrifuged at 75,000×g to pellet the membranes. The membranes are resuspended in 10 mM Hepes, 7.4 containing 1 mM DTT and 10% glycerol to approximately 5 mg protein/ml. Membranes (2-10 μg protein/well) are incubated in 96-well plates with 1 nM [^3H]PGD2 and test compound in Assay Buffer (50 mM Hepes, 10 mM MnCl2, 1 mM EDTA, plus or minus 0.2% human serum albumin, pH 7.4) for 60 minutes at room temperature. The reactions are terminated by rapid filtration through Whatman GF/C glass fibre filter plates. The filter plates were pre-soaked in 0.33% polyethylenimine for 30 minutes at room temperature then washed in Wash Buffer (50 mM Hepes, 0.5 M NaCl pH 7.4) prior to harvesting. After harvesting, the filter plates are washed 3 times with 1 ml cold Wash Buffer then dried. Scintillant is then added to the plates and the radioactivity retained on the filters is determined on a Packard TopCount (Perkin Elmer). Specific binding is determined as total radioactive binding minus non-specific binding in the presence of 10 μM PGD2. IC50s were determined using GraphPad prism analysis of drug titration curves.

SMILES	IC50 [nM]
CCN(Cc1cc(NC(=O)C(C)(C)C)ccc1Oc1cc(CC(=O)O)ccc1OC)C(=O)C1CC1 [Compound 1-47, {3-[2-[(Cyclopropanecarbonyl-ethyl-amino)-methyl]-4-(2,2-dimethyl-propionylamino)-phenoxy]-4-methoxy-phenyl}-acetic acid]	< 300
COC(=O)N(Cc1cc(N(C)C(C)=O)ccc1Oc1cccc(C(C)C(=O)O)c1)[C@@H](C)Cc1ccccc1 (stereo partly drawn) [Compound 1-40, 2-[3-(4-(Acetyl-methyl-amino)-2-{[methoxycarbonyl-((S)-1-methyl-2-phenyl-ethyl)-amino]-methyl}-phenoxy)-phenyl]-propionic acid]	> 300
CN(Cc1cc(C(F)(F)F)ccc1Oc1cccc(CC(=O)O)c1)C(=O)Cc1ccccc1 [Compound 1-16, (3-{2-[(Methyl-phenylacetyl-amino)-methyl]-4-trifluoromethyl-phenoxy}-phenyl)-acetic acid]	< 300
CC(=O)N(Cc1cc(Br)ccc1Oc1cccc(CC(=O)O)c1)C(C)(C)Cc1ccc(F)cc1 [Compound 1-2, {3-[2-({Acetyl-[2-(4-fluoro-phenyl)-1,1-dimethyl-ethyl]-amino}-methyl)-4-bromo-phenoxy]-phenyl}-acetic acid]	< 300
CCN(Cc1cc(C(F)(F)F)ccc1Oc1cccc(CC(=O)O)c1)S(=O)(=O)c1ccc(C)cc1 [Compound 1-27, [3-(2-{[Ethyl-(toluene-4-sulfonyl)-amino]-methyl}-4-trifluoromethyl-phenoxy)-phenyl]-acetic acid]	< 300
CC(=O)N(Cc1cc(C(F)(F)F)ccc1Oc1cccc(CC(=O)O)c1)C1CCc2ccccc21 (stereo in doubt) [Compound 1-14, (3-{2-[((S)-Acetyl-indan-1-yl-amino)-methyl]-4-trifluoromethyl-phenoxy}-phenyl)-acetic acid]	< 300
O=C(O)Cc1cccc(Oc2ccc(C(F)(F)F)cc2CNC(=O)c2ccc(Cl)cc2)c1 [Compound 1-15, (3-{2-[(4-Chloro-benzoylamino)-methyl]-4-trifluoromethyl-phenoxy}-phenyl)-acetic acid]	> 300
COc1ccc(CC(=O)O)cc1Oc1ccc(C(F)(F)F)cc1CN(Cc1ccccc1)C(C)=O [Compound 1-35, (3-{2-[(Acetyl-benzyl-amino)-methyl]-4-trifluoromethyl-phenoxy}-4-methoxy-phenyl)-acetic acid]	< 300
CCN(Cc1cc(C(F)(F)F)ccc1Oc1cc(CC(=O)O)ccc1OC)C(C)=O [Compound 1-34, (3-{2-[(Acetyl-ethyl-amino)-methyl]-4-trifluoromethyl-phenoxy}-4-methoxy-phenyl)-acetic acid]	> 300
COc1ccc(CC(=O)O)cc1Oc1ccc(Br)cc1CN[C@H]1c2ccccc2C[C@H]1O [Compound 1-7, (3-{4-Bromo-2-[((1S,2R)-2-hydroxy-indan-1-ylamino)-methyl]-phenoxy}-4-methoxy-phenyl)-acetic acid]	> 1000
CCN(Cc1cc(Br)ccc1Oc1cc(CC(=O)O)ccc1OC)C(C)=O [Compound 1-8, (3-{2-[(Acetyl-ethyl-amino)-methyl]-4-bromo-phenoxy}-4-methoxy-phenyl)-acetic acid]	< 300
CCN(Cc1cc(NC(=O)c2ccc(Cl)cc2)ccc1Oc1cc(CC(=O)O)ccc1OC)C(=O)C1CC1 [Compound 1-48, (3-{4-(4-Chloro-benzoylamino)-2-[(cyclopropanecarbonyl-ethyl-amino)-methyl]-phenoxy}-4-methoxy-phenyl)-acetic acid]	< 300
CCN(Cc1cc(C(F)(F)F)ccc1Oc1cccc(CC(=O)O)c1)S(=O)(=O)c1ccc(Nc2cccc(C)c2)cc1 [Compound 1-32, [3-(2-{[Ethyl-(4-m-tolylamino-benzenesulfonyl)-amino]-methyl}-4-trifluoromethyl-phenoxy)-phenyl]-acetic acid]	< 300
O=C(O)CCn1c2c(c3ccccc31)C[C@H](NS(=O)(=O)c1ccc(F)cc1)CC2 [Ramatroban, reference compound]	> 300

The next lines start with the values.

IC50 [nM]	SMILES
< 300	CN(Cc1cc(C(F)(F)F)ccc1Oc1cccc(CC(=O)O)c1)C(=O)OCc1ccccc1 [Compound 1-21, (3-{2-[(Benzyloxycarbonyl-methyl-amino)-methyl]-4-trifluoromethyl-phenoxy}-phenyl)-acetic acid]
< 300	CC(=O)N(CCc1ccccc1)Cc1cc(Br)ccc1Oc1cccc(CC(=O)O)c1 [Compound 1-1, (3-{2-[(Acetyl-phenethyl-amino)-methyl]-4-bromo-phenoxy}-phenyl)-acetic acid]
< 300	COC(=O)N(Cc1cc(Br)ccc1Oc1cccc(CC(=O)O)c1)[C@@H](C)Cc1ccccc1 [Compound 1-5, [3-(4-Bromo-2-{[methoxycarbonyl-((S)-1-methyl-2-phenyl-ethyl)-amino]-methyl}-phenoxy)-phenyl]-acetic acid]
< 300	CCN(Cc1cc(C(F)(F)F)ccc1Oc1cccc(CC(=O)O)c1)S(=O)(=O)c1ccc2ccccc2c1 [Compound 1-30, [3-(2-{[Ethyl-(naphthalene-2-sulfonyl)-amino]-methyl}-4-trifluoromethyl-phenoxy)-phenyl]-acetic acid]
< 300	COC(=O)N(Cc1ccccc1)Cc1cc(Br)ccc1Oc1cc(CC(=O)O)ccc1OC [Compound 1-11, (3-{2-[(Benzyl-methoxycarbonyl-amino)-methyl]-4-bromo-phenoxy}-4-methoxy-phenyl)-acetic acid]
< 300	CCN(Cc1cc(C(F)(F)F)ccc1Oc1cccc(CC(=O)O)c1)S(=O)(=O)c1ccc(N(C)c2cccc(C)c2)cc1 [Compound 1-33, {3-[2-({Ethyl-[4-(methyl-m-tolyl-amino)-benzenesulfonyl]-amino}-methyl)-4-trifluoromethyl-phenoxy]-phenyl}-acetic acid]
< 300	O=C(O)Cc1cccc(Oc2ccc(Br)cc2CN(C(=O)OCc2ccccc2)C2CCc3ccccc32)c1 (stereo in doubt) [Compound 1-6, (3-{2-[((R)-Benzyloxycarbonyl-indan-1-yl-amino)-methyl]-4-bromo-phenoxy}-phenyl)-acetic acid]
< 300	COC(=O)N(Cc1cc(C(F)(F)F)ccc1Oc1cccc(CC(=O)O)c1)C1CCc2ccccc21 (stereo in doubt) [Compound 1-19, (3-{2-[((R)-Indan-1-yl-methoxycarbonyl-amino)-methyl]-4-trifluoromethyl-phenoxy}-phenyl)-acetic acid]
> 300	CCN(Cc1cc(C(F)(F)F)ccc1Oc1cc(CC(=O)O)ccc1OC)C(=O)OC [Compound 1-36, (3-{2-[(Ethyl-methoxycarbonyl-amino)-methyl]-4-trifluoromethyl-phenoxy}-4-methoxy-phenyl)-acetic acid]
< 300	COC(=O)N(Cc1cc(NC(C)=O)ccc1Oc1cccc(CC(=O)O)c1)[C@@H](C)Cc1ccccc1 [Compound 1-38, [3-(4-Acetylamino-2-{[methoxycarbonyl-((S)-1-methyl-2-phenyl-ethyl)-amino]-methyl}-phenoxy)-phenyl]-acetic acid]
> 300	CN(Cc1cc(C(F)(F)F)ccc1Oc1cccc(CC(=O)O)c1)S(=O)(=O)c1ccccc1C(F)(F)F [Compound 1-24, [3-(2-{[Methyl-(2-trifluoromethyl-benzenesulfonyl)-amino]-methyl}-4-trifluoromethyl-phenoxy)-phenyl]-acetic acid]
